Measured values reported in PMC12471299, “Secondary Metabolites of the Marine Sponge-Derived Fungus Aspergillus subramanianii 1901NT-1.40.2 and Their Antimicrobial and Anticancer Activities” (Marine Drugs, 2025).
pIC50: −log10 of the molar value. Values after ≈ are worked out from the molar mass of the structure shown. Values joined by “and” are separate entries in the source; they are usually repeats but may differ in a detail not shown here. Equal entries are not always repeated.

Experiments:
Candida albicans KMM 455 [1] = experiment: Antimicrobial assay, growth inhibition (optical density); format: cell-based; conditions: Candida albicans, KMM455, 18 h, C. albicans, 18 h
Method: (§1) The Gram-positive bacterial Staphylococcus aureus ATCC 21027, Gram-negative bacterial Escherichia coli VKPM (B-7935), and yeast-like fungal Candida albicans KMM 455 strains were fermented on solid medium Mueller Hinton broth with agar (16.0 g/L) in a Petri dish at 37 °C for 24 h. The antimicrobial activity of the compound was tested at concentrations ranging from 100 µM and lower. The effect of the compound on bacterial growth was estimated as described by. Gentamicin and amphotericin B were used as positive controls against S. aureus, E. coli, and C. albicans, and a 1% dimethyl sulfoxide (DMSO) solution in PBS was used as a negative control. The optical density of the bacterial suspension after 18 h was measured at λ = 620 nm. The effect of the compound on biofilm formation for 18 h was tested using MTT reagent (Sigma-Aldrich, St. Louis, MO, USA) in accordance with. The optical density of the obtained solution was measured at λ = 570 nm. A Multiskan FS spectrophotometer (Thermo Scientific Inc., Beverly, MA, USA) was used for both assays. The results were calculated as percentages of the control data and presented as minimal concentrations reduced by 50% of growth or biofilm formation (MIC50).

[2] = tested on: Staphylococcus aureus ATCC 21027; experiment: as above; format: cell-based; conditions: S. aureus, 18 h
Method: as §1

[3] = tested on: Escherichia coli VKPM (B-7935); experiment: as above; format: cell-based; conditions: E. coli, 18 h
Method: as §1

[4] = tested on: MDA-MB-231 breast cancer cells; experiment: Cell viability assay (MTT); format: cell-based, human
From the text: (§2) Rat cardiomyocyte H9c2 cells were kindly provided by Prof. Dr. Gunhild von Amsberg from the Martini-Klinik Prostate Cancer Center, University Hospital Hamburg-Eppendorf, Hamburg, Germany. The human HaCaT keratinocyte cell line was kindly provided by Prof. N. Fusenig (Cancer Research Centre, Heidelberg, Germany). Non-cancerous human breast epithelial MCF-10A cells were kindly provided by Dr. Irina Zhitnyak (N. N. Blokhin National Medical Research Center of Oncology, Moscow, Russia). Human breast cancer MCF-7 HTB-22 and MDA-MB-231 cells were obtained from the ATTC (Manassas, VA, USA).
(§3) H9c2 and HaCaT cells were cultured in DMEM with 10% fetal bovine serum and 1% penicillin/streptomycin (BioloT, St. Petersburg, Russia). MCF-7 and MDA-MB-231 cells were cultured in MEM (BioloT, St. Petersburg, Russia) with 10% fetal bovine serum (FBS) and 1% penicillin/streptomycin (BioloT, St. Petersburg, Russia). MCF 10A cells were cultured in DMEM F12 medium (BioloT, St. Petersburg, Russia) supplemented with 20% FBS, 20 ng/mL hrEGF (Sci-Store, Moscow, Russia), and 1% penicillin/streptomycin (BioloT, St. Petersburg, Russia). All cells were cultured at 37 °C in a humidified atmosphere containing 5% CO2.
(§4) H9c2 cells were seeded at a concentration of 3 × 10^3 cells/well. MCF-10A, MCF-7, and MDA-MB-231 cells were seeded at 5 × 10^3 cells/well, and HaCaT cells were seeded at 1 × 10^4 cells/well. The experiments were initiated after 24 h.
(§5) Compounds at concentrations up to 100 µM were added to the wells for 24h or 48 h, and the viability of the cells was measured using an MTT (3-(4,5-dimethylthiazol-2-yl)-2,5-diphenyltetrazolium bromide) assay, which was performed according to the manufacturer’s instructions (Sigma-Aldrich, Munich, Germany). […] DMSO was used as a control. The results are presented as percentages of the control data.

[5] = tested on: MCF-10A breast epithelial cells; experiment: Cell viability assay (MTT); format: cell-based, human; conditions: MCF10A
From the text: as §2, §3, §4, §5

[6] = tested on: MCF-7 breast cancer cells; experiment: Cell viability assay (MTT); format: cell-based, human
From the text: as §2, §3, §4, §5

HaCaT keratinocytes = experiment: Cell viability assay (MTT); format: cell-based, human
From the text: as §2, §3, §4, §5

Candida albicans KMM 455 [7] = experiment: Biofilm formation assay (MTT); format: cell-based; conditions: C. albicans, 18 h
Method: as §1

[8] = tested on: Staphylococcus aureus ATCC 21027; experiment: Biofilm formation assay (MTT); format: cell-based; conditions: S. aureus, 18 h
Method: as §1

[9] = tested on: Escherichia coli VKPM (B-7935); experiment: Biofilm formation assay (MTT); format: cell-based; conditions: E. coli, 18 h
Method: as §1

H9c2 cardiomyocytes = experiment: Cell viability assay (MTT); format: cell-based, rat
From the text: as §2, §3, §4, §5

Cc1c(C)c(O)c2c(c1C)C(C)(O)OC2=O (centres unmarked) [Compound 3, sclerolide]
MIC50 (Candida albicans KMM 455 [1]): > 100 µM | Growth inhibition, MIC50 [2]: 20.34 ± 2.58 µM | MIC50 ([2]; Staphylococcus aureus, ATCC21027, 18 h): 20.3 µM (≈ 4.52 µg/mL) | Growth inhibition, MIC50 [3]: 21.07 ± 2.11 µM | MIC50 ([3]; Escherichia coli): 21.1 µM (≈ 4.68 µg/mL) | cell viability ([4]; MDA-MB-231, 24 h, 1.0 µM): 99.8 ± 1.3 % of control | cell viability ([4]; MDA-MB-231, 24 h, 10.0 µM): 100.6 ± 5.7 % of control | cell viability ([4]; MDA-MB-231, 24 h, 100.0 µM): 68.6 ± 8.3 % of control | cell viability ([4]; MDA-MB-231, 48 h, 1.0 µM): 107.6 ± 2.8 % of control | cell viability ([4]; MDA-MB-231, 48 h, 10.0 µM): 99.0 ± 5.1 % of control | cell viability ([4]; MDA-MB-231, 48 h, 100.0 µM): 60.9 ± 3.6 % of control | pIC50 ([5]; Homo sapiens, MCF-10A, time not stated, read-out: half-maximal concentration (IC50), viability): ~4.00 | cell viability ([5]; 24 h, 1.0 µM): 101.7 ± 1.3 % of control | cell viability ([5]; 24 h, 10.0 µM): 92.2 ± 3.5 % of control | cell viability ([5]; 24 h, 100.0 µM): 62.5 ± 2.2 % of control | cell viability ([5]; 48 h, 1.0 µM): 101.6 ± 5.1 % of control | cell viability ([5]; 48 h, 10.0 µM): 74.4 ± 2.4 % of control | cell viability ([5]; 48 h, 100.0 µM): 47.5 ± 7.0 % of control | cell viability ([6]; MCF-7, 24 h, 1.0 µM): 107.2 ± 8.9 % of control | cell viability ([6]; MCF-7, 24 h, 10.0 µM): 95.6 ± 2.4 % of control | cell viability ([6]; MCF-7, 24 h, 100.0 µM): 70.2 ±5.5 % of control | cell viability ([6]; MCF-7, 48 h, 1.0 µM): 83.8 ± 3.1 % of control | cell viability ([6]; MCF-7, 48 h, 10.0 µM): 76.0 ± 2.6 % of control | cell viability ([6]; MCF-7, 48 h, 100.0 µM): 55.1 ± 1.0 % of control | cell viability (HaCaT keratinocytes; 24 h, 1.0 µM): 94.4 ± 5.9 % of control | cell viability (HaCaT keratinocytes; 24 h, 10.0 µM): 100.2 ± 3.0 % of control | cell viability (HaCaT keratinocytes; 24 h, 100.0 µM): 63.0 ± 8.6 % of control | cell viability (HaCaT keratinocytes; 48 h, 1.0 µM): 96.8 ± 1.0 % of control | cell viability (HaCaT keratinocytes; 48 h, 10.0 µM): 96.6 ± 4.1 % of control | cell viability (HaCaT keratinocytes; 48 h, 100.0 µM): 69.4 ± 3.5 % of control | decrease of viability (HaCaT keratinocytes; at 100 µM, range given for H9c2 and HaCaT together): 30.0–37.5% | Biofilm formation, MIC50 (Candida albicans KMM 455 [7]): >100 µM | Biofilm formation, MIC50 [8]: 31.14 µM and 31.14 ± 2.34 µM | Biofilm formation, MIC50 [9]: 43.51 µM and 43.51 ± 4.03 µM | cell viability (H9c2 cardiomyocytes; H9c2, 24 h, 1.0 µM): 81.1 ± 3.2 % of control | cell viability (H9c2 cardiomyocytes; H9c2, 24 h, 10.0 µM): 88.7 ± 4.4 % of control | cell viability (H9c2 cardiomyocytes; H9c2, 24 h, 100.0 µM): 74.6 ± 8.3 % of control | cell viability (H9c2 cardiomyocytes; H9c2, 48 h, 1.0 µM): 102.0 ± 5.5 % of control | cell viability (H9c2 cardiomyocytes; H9c2, 48 h, 10.0 µM): 102.7 ± 6.7 % of control | cell viability (H9c2 cardiomyocytes; H9c2, 48 h, 100.0 µM): 62.5 ± 4.6 % of control | decrease of viability (H9c2 cardiomyocytes; H9c2, at 100 µM, range given for H9c2 and HaCaT together): 30.0–37.5%
